Legend:
[1] = system: Epidermal growth factor receptor (Homo sapiens), P00533 [L858R,T790M]; conditions: Compound concentration 100.0 nM
[2] = target: Serine/threonine-protein kinase PAK 3 (Homo sapiens) (UniProt O75914); conditions: Compound concentration 100.0 nM
[3] = target: Myosin light chain kinase family member 4 (Homo sapiens) (UniProt Q86YV6); conditions: Compound concentration 100.0 nM
[4] = target: Serine/threonine-protein kinase Nek11 (Homo sapiens) (UniProt Q8NG66); conditions: Compound concentration 100.0 nM
[5] = target: Serine/threonine-protein kinase TNNI3K (Homo sapiens) (UniProt Q59H18); conditions: Compound concentration 100.0 nM
[6] = target: Serine/threonine-protein kinase 26 (Homo sapiens) (UniProt Q9P289); conditions: Compound concentration 100.0 nM
[7] = target: Serine/threonine-protein kinase Nek6 (Homo sapiens) (UniProt Q9HC98); conditions: Compound concentration 100.0 nM
[8] = target: Delta-type opioid receptor (Homo sapiens) (UniProt P41143); conditions: Compound concentration 10.0 uM
[9] = target: Cyclin-dependent kinase 2 homolog (Plasmodium falciparum (isolate 3D7)) (UniProt P61075); conditions: Compound concentration 100.0 nM
Cyclin-dependent kinase 2 homolog (Plasmodium falciparum (isolate 3D7)), sequence (P61075 whole entry): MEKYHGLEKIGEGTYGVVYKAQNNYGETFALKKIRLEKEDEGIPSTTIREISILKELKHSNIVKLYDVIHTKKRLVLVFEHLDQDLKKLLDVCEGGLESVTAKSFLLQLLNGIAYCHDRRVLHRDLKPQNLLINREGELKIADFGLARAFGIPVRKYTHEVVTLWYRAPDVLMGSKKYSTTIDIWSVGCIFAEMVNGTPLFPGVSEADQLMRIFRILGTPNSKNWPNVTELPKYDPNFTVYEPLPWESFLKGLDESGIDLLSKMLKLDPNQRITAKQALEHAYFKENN

[10] = target: Serine/threonine-protein kinase LATS1 (Homo sapiens) (UniProt O95835); conditions: Compound concentration 100.0 nM
[11] = target: cGMP-dependent protein kinase 2 (Homo sapiens) (UniProt Q13237); conditions: Compound concentration 100.0 nM
[12] = target: Phosphatidylinositol 5-phosphate 4-kinase type-2 beta (Homo sapiens) (UniProt P78356); conditions: Compound concentration 100.0 nM
[13] = target: Hormonally up-regulated neu tumor-associated kinase (Homo sapiens) (UniProt P57058); conditions: Compound concentration 100.0 nM
Hormonally up-regulated neu tumor-associated kinase (Homo sapiens), sequence (P57058 whole entry): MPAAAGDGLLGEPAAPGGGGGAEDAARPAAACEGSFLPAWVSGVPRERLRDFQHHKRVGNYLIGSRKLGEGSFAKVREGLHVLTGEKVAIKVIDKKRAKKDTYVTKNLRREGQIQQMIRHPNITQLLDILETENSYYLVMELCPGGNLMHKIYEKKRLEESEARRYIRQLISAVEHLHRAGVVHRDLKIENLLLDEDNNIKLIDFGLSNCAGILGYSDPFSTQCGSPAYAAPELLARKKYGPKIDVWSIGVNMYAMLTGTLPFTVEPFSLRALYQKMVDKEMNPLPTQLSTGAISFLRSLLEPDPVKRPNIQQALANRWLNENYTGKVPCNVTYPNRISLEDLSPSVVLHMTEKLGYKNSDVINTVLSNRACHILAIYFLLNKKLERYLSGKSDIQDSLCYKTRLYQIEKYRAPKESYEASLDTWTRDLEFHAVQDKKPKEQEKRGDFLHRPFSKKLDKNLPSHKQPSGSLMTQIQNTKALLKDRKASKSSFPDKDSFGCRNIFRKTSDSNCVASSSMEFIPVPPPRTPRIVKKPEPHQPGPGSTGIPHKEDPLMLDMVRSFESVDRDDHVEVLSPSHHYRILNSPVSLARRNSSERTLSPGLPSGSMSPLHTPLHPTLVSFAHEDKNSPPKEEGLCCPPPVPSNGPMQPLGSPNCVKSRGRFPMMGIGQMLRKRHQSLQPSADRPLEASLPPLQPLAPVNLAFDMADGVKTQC

[14] = system: Receptor-type tyrosine-protein kinase FLT3 (Homo sapiens), P36888 [R834Q]; conditions: Compound concentration 100.0 nM
[15] = target: Cyclin-dependent kinase-like 5 (Homo sapiens) (UniProt O76039); conditions: Compound concentration 100.0 nM
Cyclin-dependent kinase-like 5 (Homo sapiens), sequence (O76039 whole entry): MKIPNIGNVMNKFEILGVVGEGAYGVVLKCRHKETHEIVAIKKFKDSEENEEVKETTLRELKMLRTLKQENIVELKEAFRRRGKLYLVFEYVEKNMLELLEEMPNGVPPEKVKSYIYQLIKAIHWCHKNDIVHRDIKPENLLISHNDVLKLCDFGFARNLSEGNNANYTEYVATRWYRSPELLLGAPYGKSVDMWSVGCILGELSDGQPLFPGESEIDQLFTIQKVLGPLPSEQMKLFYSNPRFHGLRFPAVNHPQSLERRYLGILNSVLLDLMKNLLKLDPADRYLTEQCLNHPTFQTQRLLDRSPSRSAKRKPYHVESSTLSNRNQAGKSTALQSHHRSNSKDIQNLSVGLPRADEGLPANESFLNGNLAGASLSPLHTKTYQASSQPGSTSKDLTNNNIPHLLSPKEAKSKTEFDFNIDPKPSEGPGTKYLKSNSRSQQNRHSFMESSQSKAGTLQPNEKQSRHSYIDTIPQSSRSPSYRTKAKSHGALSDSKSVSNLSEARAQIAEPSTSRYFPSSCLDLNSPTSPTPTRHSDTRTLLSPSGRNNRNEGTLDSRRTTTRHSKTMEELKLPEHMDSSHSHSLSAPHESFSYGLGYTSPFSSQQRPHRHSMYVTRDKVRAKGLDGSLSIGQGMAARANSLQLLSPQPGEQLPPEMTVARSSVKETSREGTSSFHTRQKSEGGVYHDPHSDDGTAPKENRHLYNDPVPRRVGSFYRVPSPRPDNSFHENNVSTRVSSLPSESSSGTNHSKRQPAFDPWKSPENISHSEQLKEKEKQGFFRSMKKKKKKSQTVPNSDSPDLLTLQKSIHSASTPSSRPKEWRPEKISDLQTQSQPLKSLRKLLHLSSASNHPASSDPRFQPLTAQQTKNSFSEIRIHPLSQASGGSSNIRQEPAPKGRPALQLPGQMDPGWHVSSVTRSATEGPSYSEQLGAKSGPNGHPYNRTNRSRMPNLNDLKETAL

[16] = target: Mitogen-activated protein kinase kinase kinase kinase 3 (Homo sapiens) (UniProt Q8IVH8); conditions: Compound concentration 100.0 nM
[17] = system: Mast/stem cell growth factor receptor Kit (Homo sapiens), P10721 [A829P]; conditions: Compound concentration 100.0 nM
[18] = system: Phosphatidylinositol 4,5-bisphosphate 3-kinase catalytic subunit alpha isoform (Homo sapiens), P42336 [M1043I]; conditions: Compound concentration 100.0 nM
[19] = target: Serine/threonine-protein kinase MARK1 (Homo sapiens) (UniProt Q9P0L2); conditions: Compound concentration 100.0 nM
[20] = target: Macrophage-stimulating protein receptor (Homo sapiens) (UniProt Q04912); conditions: Compound concentration 100.0 nM
[21] = target: Serine/threonine-protein kinase PLK1 (Homo sapiens) (UniProt P53350); conditions: Compound concentration 100.0 nM
[22] = target: Serine/threonine-protein kinase 25 (Homo sapiens) (UniProt O00506); conditions: Compound concentration 100.0 nM
Serine/threonine-protein kinase 25 (Homo sapiens), sequence (O00506 whole entry, looked up): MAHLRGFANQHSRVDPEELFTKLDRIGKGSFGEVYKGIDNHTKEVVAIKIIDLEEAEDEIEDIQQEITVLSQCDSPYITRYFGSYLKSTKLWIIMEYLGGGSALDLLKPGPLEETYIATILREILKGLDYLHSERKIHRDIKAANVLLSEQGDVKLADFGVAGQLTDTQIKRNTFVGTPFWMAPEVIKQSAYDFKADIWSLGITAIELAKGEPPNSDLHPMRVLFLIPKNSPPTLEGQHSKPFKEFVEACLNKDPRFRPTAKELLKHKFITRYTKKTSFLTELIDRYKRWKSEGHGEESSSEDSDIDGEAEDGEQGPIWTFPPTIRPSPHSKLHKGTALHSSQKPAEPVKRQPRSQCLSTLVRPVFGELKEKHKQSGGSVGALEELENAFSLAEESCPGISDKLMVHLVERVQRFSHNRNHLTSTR

[23] = target: Testis-specific serine/threonine-protein kinase 1 (Homo sapiens) (UniProt Q9BXA7); conditions: Compound concentration 100.0 nM
[24] = target: Casein kinase I isoform delta (Homo sapiens) (UniProt P48730); conditions: Compound concentration 100.0 nM
[25] = system: Tyrosine-protein kinase ABL1 (Homo sapiens), P00519 [Q252H]; conditions: Compound concentration 100.0 nM
[26] = target: Casein kinase I isoform alpha (Homo sapiens) (UniProt P48729); conditions: Compound concentration 100.0 nM
[27] = target: Mitogen-activated protein kinase 10 (Homo sapiens) (UniProt P53779); conditions: Compound concentration 100.0 nM
Mitogen-activated protein kinase 10 (Homo sapiens), sequence (P53779 whole entry): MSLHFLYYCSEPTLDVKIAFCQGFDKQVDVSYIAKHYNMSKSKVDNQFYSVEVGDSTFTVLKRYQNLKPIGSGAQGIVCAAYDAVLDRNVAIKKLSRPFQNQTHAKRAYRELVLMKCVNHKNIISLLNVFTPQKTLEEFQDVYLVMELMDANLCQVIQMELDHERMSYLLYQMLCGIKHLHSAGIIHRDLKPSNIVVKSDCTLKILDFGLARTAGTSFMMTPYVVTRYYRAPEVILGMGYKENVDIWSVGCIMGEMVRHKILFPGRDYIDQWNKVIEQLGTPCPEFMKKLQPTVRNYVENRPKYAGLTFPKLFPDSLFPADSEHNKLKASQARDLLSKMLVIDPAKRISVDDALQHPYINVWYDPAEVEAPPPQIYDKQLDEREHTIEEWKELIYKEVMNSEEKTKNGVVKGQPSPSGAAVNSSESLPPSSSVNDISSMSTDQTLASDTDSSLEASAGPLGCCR

[28] = target: Serine/threonine-protein kinase Sgk2 (Homo sapiens) (UniProt Q9HBY8); conditions: Compound concentration 100.0 nM
[29] = target: Fibroblast growth factor receptor 2 (Homo sapiens) (UniProt P21802); conditions: Compound concentration 100.0 nM
[30] = target: 5-hydroxytryptamine receptor 1E (Homo sapiens) (UniProt P28566); conditions: Compound concentration 10.0 uM
5-hydroxytryptamine receptor 1E (Homo sapiens), sequence (P28566 whole entry): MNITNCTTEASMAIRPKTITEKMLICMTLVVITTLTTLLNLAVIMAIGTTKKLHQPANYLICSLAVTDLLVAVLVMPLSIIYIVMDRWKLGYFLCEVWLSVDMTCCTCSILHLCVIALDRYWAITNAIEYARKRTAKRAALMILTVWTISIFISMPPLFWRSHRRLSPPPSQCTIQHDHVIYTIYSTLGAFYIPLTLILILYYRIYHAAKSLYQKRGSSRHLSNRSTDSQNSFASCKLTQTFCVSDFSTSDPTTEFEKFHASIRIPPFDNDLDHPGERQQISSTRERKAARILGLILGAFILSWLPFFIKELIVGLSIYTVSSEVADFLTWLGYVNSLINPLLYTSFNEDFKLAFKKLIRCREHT

[31] = target: Serine/threonine-protein kinase 17A (Homo sapiens) (UniProt Q9UEE5); conditions: Compound concentration 100.0 nM
[32] = target: Serine/threonine-protein kinase PAK 2 (Homo sapiens) (UniProt Q13177); conditions: Compound concentration 100.0 nM
[33] = target: Phosphorylase b kinase regulatory subunit alpha, liver isoform (Homo sapiens) (UniProt P46019); conditions: Compound concentration 100.0 nM
Phosphorylase b kinase regulatory subunit alpha, liver isoform (Homo sapiens), sequence (P46019 whole entry, canonical isoform): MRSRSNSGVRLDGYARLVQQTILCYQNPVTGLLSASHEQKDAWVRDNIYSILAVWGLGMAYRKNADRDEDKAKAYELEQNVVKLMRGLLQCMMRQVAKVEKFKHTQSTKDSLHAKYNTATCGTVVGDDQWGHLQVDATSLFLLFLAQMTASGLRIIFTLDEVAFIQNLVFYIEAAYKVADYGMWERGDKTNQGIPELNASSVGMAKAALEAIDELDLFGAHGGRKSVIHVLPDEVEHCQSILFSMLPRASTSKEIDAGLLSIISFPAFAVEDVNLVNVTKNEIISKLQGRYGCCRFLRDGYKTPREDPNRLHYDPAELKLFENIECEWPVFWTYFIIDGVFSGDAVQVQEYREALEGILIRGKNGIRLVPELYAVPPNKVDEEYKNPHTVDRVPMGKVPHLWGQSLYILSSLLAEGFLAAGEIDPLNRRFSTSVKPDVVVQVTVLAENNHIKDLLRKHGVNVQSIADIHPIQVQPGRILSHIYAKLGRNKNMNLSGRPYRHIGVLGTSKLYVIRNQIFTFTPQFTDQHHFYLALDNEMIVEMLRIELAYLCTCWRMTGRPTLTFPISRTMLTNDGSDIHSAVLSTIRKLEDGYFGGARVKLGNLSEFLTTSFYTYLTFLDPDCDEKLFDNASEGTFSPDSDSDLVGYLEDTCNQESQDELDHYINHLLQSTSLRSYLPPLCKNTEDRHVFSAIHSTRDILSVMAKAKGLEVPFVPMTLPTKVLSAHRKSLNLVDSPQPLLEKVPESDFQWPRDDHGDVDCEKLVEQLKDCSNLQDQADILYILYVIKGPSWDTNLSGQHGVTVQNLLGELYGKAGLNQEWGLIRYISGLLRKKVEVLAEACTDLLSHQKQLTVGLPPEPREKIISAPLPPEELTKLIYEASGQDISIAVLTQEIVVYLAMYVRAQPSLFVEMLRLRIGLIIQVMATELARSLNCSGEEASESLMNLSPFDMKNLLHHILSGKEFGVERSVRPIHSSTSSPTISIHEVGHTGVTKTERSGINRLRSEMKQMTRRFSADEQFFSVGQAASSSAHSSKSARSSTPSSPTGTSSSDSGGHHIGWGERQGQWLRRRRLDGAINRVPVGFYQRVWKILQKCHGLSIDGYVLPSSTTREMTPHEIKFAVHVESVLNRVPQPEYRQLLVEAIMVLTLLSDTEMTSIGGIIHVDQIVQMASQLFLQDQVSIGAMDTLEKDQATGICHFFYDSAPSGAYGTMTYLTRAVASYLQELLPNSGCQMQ

[34] = target: Mitogen-activated protein kinase kinase kinase 2 (Homo sapiens) (UniProt Q9Y2U5); conditions: Compound concentration 100.0 nM
[35] = target: MAP kinase-interacting serine/threonine-protein kinase 1 (Homo sapiens) (UniProt Q9BUB5); conditions: Compound concentration 100.0 nM
[36] = target: 5-hydroxytryptamine receptor 1A (Homo sapiens) (UniProt P08908); conditions: Compound concentration 10.0 uM
[37] = target: Calcium/calmodulin-dependent protein kinase type II subunit gamma (Homo sapiens) (UniProt Q13555); conditions: Compound concentration 100.0 nM
[38] = target: Serine/threonine-protein kinase SIK3 (Homo sapiens) (UniProt Q9Y2K2); conditions: Compound concentration 100.0 nM
[39] = target: Ribosomal protein S6 kinase alpha-2 (Homo sapiens) (UniProt Q15349); conditions: Compound concentration 100.0 nM
[40] = target: Serine/threonine-protein kinase WNK4 (Homo sapiens) (UniProt Q96J92); conditions: Compound concentration 100.0 nM
[41] = target: Tyrosine-protein kinase ABL1 (Homo sapiens) (UniProt P00519); conditions: Compound concentration 100.0 nM
[42] = system: Receptor-type tyrosine-protein kinase FLT3 (Homo sapiens), P36888 [UNDEFINED MUTATION]; conditions: Compound concentration 100.0 nM
[43] = target: Serine/threonine-protein kinase tousled-like 2 (Homo sapiens) (UniProt Q86UE8); conditions: Compound concentration 100.0 nM
[44] = target: Serine/threonine-protein kinase TBK1 (Homo sapiens) (UniProt Q9UHD2); conditions: Compound concentration 100.0 nM

Serine/threonine-protein kinase PAK 3 (Homo sapiens), sequence (O75914 whole entry, looked up): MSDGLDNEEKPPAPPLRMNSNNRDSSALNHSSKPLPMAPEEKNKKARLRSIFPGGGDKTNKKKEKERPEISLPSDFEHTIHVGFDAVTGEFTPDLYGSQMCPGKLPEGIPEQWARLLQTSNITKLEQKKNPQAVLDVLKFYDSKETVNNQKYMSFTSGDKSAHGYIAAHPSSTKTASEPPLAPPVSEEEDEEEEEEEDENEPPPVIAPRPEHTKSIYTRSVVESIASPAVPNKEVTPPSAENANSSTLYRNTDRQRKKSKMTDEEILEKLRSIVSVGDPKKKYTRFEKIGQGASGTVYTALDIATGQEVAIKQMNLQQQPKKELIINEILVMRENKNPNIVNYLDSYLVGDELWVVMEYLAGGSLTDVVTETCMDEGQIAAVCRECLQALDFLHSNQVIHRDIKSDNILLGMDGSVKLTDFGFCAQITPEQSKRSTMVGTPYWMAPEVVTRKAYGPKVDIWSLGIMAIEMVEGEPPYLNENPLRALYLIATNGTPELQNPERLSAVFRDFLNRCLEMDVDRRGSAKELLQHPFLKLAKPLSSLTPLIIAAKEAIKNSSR

O=C(NCCCC1CCCCC1)c1ccc(CNC(=O)c2cnn(-c3ccccc3)c2C(F)(F)F)cc1 [SR-321]
inactive: residual activity [1] 95% | residual activity [2] 100% | residual activity [3] 100% | residual activity [4] 100% | residual activity [5] 79% | residual activity [6] 93% | residual activity [7] 83% | inhibition [8] 12.9% | residual activity [9] 100% | residual activity [10] 100% | residual activity [11] 89% | residual activity [12] 96% | residual activity [13] 100% | residual activity [14] 100% | residual activity [15] 100% | residual activity [16] 78% | residual activity [17] 100% | residual activity [18] 68% | residual activity [19] 100% | residual activity [20] 100% | residual activity [21] 93% | residual activity [22] 81% | residual activity [23] 94% | residual activity [24] 100% | residual activity [25] 98% | residual activity [26] 99% | residual activity [27] 100% | residual activity [28] 95% | residual activity [29] 100% | inhibition [30] -6.92% | residual activity [31] 100% | residual activity [32] 100% | residual activity [33] 100% | residual activity [34] 100% | residual activity [35] 98% | inhibition [36] 20.1% | residual activity [37] 100% | residual activity [38] 76% | residual activity [39] 96% | residual activity [40] 100% | residual activity [41] 88% | residual activity [42] 100% | residual activity [43] 100% | residual activity [44] 100%

Nc1c(C(=O)NCc2ccc(C(=O)NCCCC3CCCCC3)cc2)cnn1-c1ccccc1 [SR-318]
inactive: residual activity [1] 96% | residual activity [2] 100% | residual activity [3] 100% | residual activity [4] 94% | residual activity [5] 100% | residual activity [6] 97% | residual activity [7] 100% | inhibition [8] 24.1% | residual activity [9] 100% | residual activity [10] 100% | residual activity [11] 96% | residual activity [12] 100% | residual activity [13] 100% | residual activity [14] 100% | residual activity [15] 100% | residual activity [16] 100% | residual activity [17] 100% | residual activity [18] 100% | residual activity [19] 79% | residual activity [20] 100% | residual activity [21] 100% | residual activity [22] 82% | residual activity [23] 81% | residual activity [24] 100% | residual activity [25] 98% | residual activity [26] 100% | residual activity [27] 100% | residual activity [28] 72% | residual activity [29] 100% | inhibition [30] 1% | residual activity [31] 100% | residual activity [32] 66% | residual activity [33] 100% | residual activity [34] 100% | residual activity [35] 82% | inhibition [36] -1.43% | residual activity [37] 100% | residual activity [38] 94% | residual activity [39] 90% | residual activity [40] 80% | residual activity [41] 97% | residual activity [42] 100% | residual activity [43] 100% | residual activity [44] 96%

Reference: ChEMBL document CHEMBL4507315 (2021)
